Reference: article PMC10376326, “Novel Acylselenourea Derivatives: Dual Molecules with Anticancer and Radical Scavenging Activity” (Antioxidants, 2023)

Experiments:
[1] = test system: non-malignant BEAS-2B lung cell line; test: MTT cell viability assay, BEAS-2B; assay type: cell-based; conditions: Homo sapiens, normal lung, 48 h
Description: Cell lines were purchased from the American Type Culture Collection (ATCC). Cell lines MDA-MB-231, HTB-54, DU-145, and BEAS-2B were cultured in RPMI 1640 medium (Gibco, Thermo Fisher Scientific, Gaithersburg, MD, USA) supplemented with 10% fetal bovine serum (FBS; Gibco), 100 units/mL penicillin, and […] streptomycin (Gibco). HT-29 cell line was grown in McCoy’s 5A (Gibco), 10% FBS, 100 units/mL penicillin, and 100 μg/mL streptomycin. Cells were maintained at 37 °C and 5% CO2. The culture medium was changed every three days.
The cell viability of each compound was measured by MTT colorimetric assay. Each compound was dissolved in DMSO at a concentration of 0.01 M. Each compound was tested at two different concentrations (10 and 50 µM) in MDA-MB-231 (breast), HTB-54 (lung), DU-145 (prostate), and HT-29 (colon) human cancer cell lines. Serial dilutions were prepared with supplemented culture medium. […] IC50 and selectivity indexes (SI) were determined.
Briefly, 1 × 10^4 tumor cells per well were grown in 96-well plates for 24 h. Then, these cells were incubated for 48 h with either DMSO (control) or a different concentration of each of the tested compounds. The cell viability was determined by adding 20 μL of MTT two hours and a half before the termination point. After this time, the culture medium was removed. The resulting formazan crystals were dissolved in 50 μL of DMSO, and the absorbance was measured at 570 nm. Results are expressed as % cell growth. The data were obtained from at least three independent experiments performed in quadruplicate.

[2] = DPPH radical scavenging assay; assay type: biochemical
Method in brief: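 Acylselenoureas at 0.003 and 0.03 mg/mL (final dilutions from DMSO stock, via methanol) mixed with DPPH• prepared at 0.04 mg/mL in methanol. Absorbance decrease at 517 nm followed 0–120 min; % scavenging calculated relative to negative control, triplicates.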

[3] = test system: HT-29 (colon) cancer cell line; test: MTT cell viability assay, HT-29; assay type: cell-based; conditions: Homo sapiens, HT-29, 48 h, read-out: Cell growth %; for activity at 10 µM: HT-29, 10 µM; for activity at 50 µM: HT-29, 50 µM
Method in brief: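 MDA-MB-231, HTB-54 and DU-145 grown in RPMI 1640, HT-29 in McCoy's 5A (10% FBS). Output is % cell growth; IC50 determined; ≥3 experiments in quadruplicate.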

DU-145 cells = test: Total ROS measurement (Muse Oxidative Stress Kit); assay type: cell-based, human; conditions: DU-145, 16 h; 1.I and 5.I 10 µM, H2O2 0.9 µM
Description: Total ROS levels were measured in DU-145 cells treated with 1.I and 5.I using the Muse Oxidative Stress Kit (EMD Millipore, Billerica, MA, USA) according to the manufacturer’s protocol. This kit uses Muse oxidative stress reagent to detect ROS inside cells. This kit identifies two different cell populations: ROS(−) cells and ROS(+) cells. In the graph, the ROS(−) population is represented by the M1 peak and the ROS(+) cells by the M2 peak. DU-145 cells treated with H2O2 (0.9 µM) were used as positive controls to identify M1 and M2 peaks. Percentages of ROS(−) and ROS(+) cells were measured using the Muse Cell Analyzer.

Row | SMILES | IC50 [1] | inhibition ([2]; 0.003 mg/mL, 0 min) | inhibition ([2]; 0.003 mg/mL, 5 min) | inhibition ([2]; 0.003 mg/mL, 15 min) | inhibition ([2]; 0.003 mg/mL, 30 min) | inhibition ([2]; 0.003 mg/mL, 60 min) | inhibition ([2]; 0.003 mg/mL, 90 min) | inhibition ([2]; 0.003 mg/mL, 120 min) | inhibition ([2]; 0.03 mg/mL, 0 min) | inhibition ([2]; 0.03 mg/mL, 5 min) | inhibition ([2]; 0.03 mg/mL, 15 min) | inhibition ([2]; 0.03 mg/mL, 30 min) | inhibition ([2]; 0.03 mg/mL, 60 min) | inhibition ([2]; 0.03 mg/mL, 90 min) | inhibition ([2]; 0.03 mg/mL, 120 min) | activity at 10 µM [3] | activity at 50 µM [3] | ROS PROFILE M2 (ROS(+) cells) (DU-145 cells) | time to reach the highest DPPH inhibition ([2]; 0.03 mg/mL)
1 | CCCNC(=[Se])NC(=O)c1ccccc1 [Compound 5.I, N-(propylcarbamoselenoyl)benzamide] | > 100 µM | 1.7 ± 1.1% | 2.9 ± 1.1% | 4.6 ± 1.2% | 6.4 ± 1.3% | 9.3 ± 1.4% | 11.4 ± 1.5% | 13 ± 1.6% | 3.2 ± 2.4% | 16.6 ± 3.1% | 29.8 ± 3.4% | 46.1 ± 3.9% | 72.6 ± 6.2% | 97.7 ± 0.6% | 96.7 ± 2.5% | 39.6 ± 14.3% | 21.4 ± 1.5% | ~13% | –
2 | CCCNC(=[Se])NC(=O)c1ccco1 [Compound 1.I, N-(propylcarbamoselenoyl)furan-2-carboxamide] | > 100 µM | 0% | 1.1 ± 2% | 3.5 ± 2% | 6.6 ± 2% | 11.7 ± 2.3% | 15.5 ± 2.5% | 17.5 ± 2.3% | 1.8 ± 1.5% | 10.3 ± 4.3% | 29.7 ± 4.1% | 55.4 ± 5.1% | 95.4 ± 4.1% | 96.5 ± 0.7% | 96.4 ± 0.6% | 44.2 ± 7.1% | 25.5 ± 4.2% | – | 60 min
